The assay relates to P388. Put plainly: Compound was evaluated for the growth inhibitory activity against p-388 lymphocytic leukemia cells. Format: functional, cell-based, Mus musculus.

Converted amounts (≈) assume the structure as drawn.

Usually IC50 stands for the midpoint of a concentration-inhibition curve. Compound `CC[C@@H](C)[C@H]1NC(=O)[C@@H](CC[S+](C)[O-])NC(=O)[C@H]2CCCN2C(=O)[C@H]2CCCN2C(=O)[C@@H](Cc2ccc(O)cc2)NC(=O)[C@H]2CCCN2C(=O)[C@H]2CCCN2C(=O)[C@H]2CCCN2C(=O)CNC1=O` (single isomer, unassigned; isomer 1) displayed an IC50 (p388) of 6 µg/mL (≈ 6.21 µM).

For `CC[C@@H](C)[C@H]1NC(=O)[C@@H](CC[S+](C)[O-])NC(=O)[C@H]2CCCN2C(=O)[C@H]2CCCN2C(=O)[C@@H](Cc2ccc(O)cc2)NC(=O)[C@H]2CCCN2C(=O)[C@H]2CCCN2C(=O)[C@H]2CCCN2C(=O)CNC1=O` (single isomer, unassigned; isomer 2), the IC50 (Mus musculus, P388, read-out: IC50) stood at 3.7 µg/mL (≈ 3.83 µM).

Source of the values: ChEMBL document CHEMBL1129003, “Cycloleonuripeptides A, B and C, three new proline-rich cyclic nonapeptides from Leonurus heterophyllus” (Bioorg Med Chem Lett, 1996).
